Laboratory results published in patent US4644012A, “Treatment for osteoporosis” (Takeda Chemical Industries, Ltd., priority 1983, dated 1987).
Ends that are not written are not given here.

Columns and labels:
Sprague-Dawley rats = details: rat, in vivo
Procedure: (§1) Five-week-old ICR mice and 5-week-old Sprague-Dawley rats were used in groups of 10 males and 10 females, and suspensions of compound A or compound B in olive oil were administered orally [2,500, 5,000 and 10,000 mg/kg of each compound] or subcutaneously [1,250, 2,500 and 5,000 mg/kg]. The animals were kept under observation for 14 days.

ICR mice = details: mouse, in vivo
Procedure: as §1

rat fetal long bone [1] = assay: Bone resorption inhibiting activity in rat fetal long bone culture (45Ca release); format: cell-based, Sprague-Dawley rat; details: 3 days
Procedure: Bone resorption inhibiting activity of 7-(1-hydroxycarbonylethyl)oxy-3-phenyl-4H-1-benzopyran-4-one (hereinafter referred to as "compound A") in rat fetal long bone culture
(§2) Determination of bone resorption was performed by the method of Raisz [J. Clin. Invest. 44, 103-116 (1965)]. Thus, a Sprague-Dawley rat on the 19th day of pregnancy was subcutaneously injected with 50μ Ci of ^45 Ca (isotope of calcium, CaCl2 solution), and was laparotomized on the following day. The embryos were aseptically taken out, the forelimbs (radius and ulna) were cut off from the trunk under a binocular dissecting microscope, and the connective tissue and cartilage were removed as much as possible to prepare bone samples. Each bone sample was preincubated at 37° C. for 24 hours in 0.6 ml of the medium containing 2 mg/ml of bovine serum albumin in BGJb medium (Fitton-Jackson modification) [GIBCO Laboratories, Grand Island, N.Y. 14072 U.S.A.]. Then, the sample was further incubated for 3 days in the same medium as above in which 10 μg/ml of compound A had been incorporated. Then, the radioactivity of ^45 Ca in the medium and that of ^45 Ca in the bone were measured and the percentage (%) of ^45 Ca released from the bone into the medium was calculated by the following formula. [formula]
As control, the bones of the embryos from the same litter were similarly incubated in the absence of compound A for 3 days.

rat fetal long bone [2] = assay: Potentiating effect on the bone resorption inhibiting action of calcitonin, PTH-stimulated rat fetal long bone culture (45Ca release); format: cell-based, Sprague-Dawley rat; details: for potentiation of the inhibitory action of calcitonin on PTH-stimulated bone resorption (in words): calcitonin 3 mU/ml, compound 25 μg/ml
Procedure: as §2
Potentiating effect of 7-(1-hydroxycarbonylethyl)-oxy-3-(4-hydroxyphenyl)-4H-1-benzopyran-4-one (hereinafter referred to as "compound B") and 7-(1-ethoxycarbonylethyl)-oxy-3-phenyl-4H-1-benzopyran-4-one (hereinafter referred to as "compound C") on the bone resorption inhibiting action of calcitonin in rat fetal long bone culture
The bone samples prepared in the same manner as Test Example 1 were preincubated for 24 hours in the same medium as that prepared in Test Example 1, which contains bovine serum albumin in BGJb medium (Fitton-Jackson modification). Then, in the concomitant presence of PTH (parathyroid hormone, a bone resorption stimulant), calcitonin and compound B or compound C, the samples were further incubated for 3 days and the percentage of ^45 Ca released into the medium was calculated by means of the same formula as that in Test Example 1. […]

| Compound | LD50 (Sprague-Dawley rats) | LD50 (ICR mice) | suppression of bone resorption (in words) (rat fetal long bone [1]; 10 μg/ml) | 45Ca (%) released (rat fetal long bone [1]; compound 10 μg/ml, 37° C, mean ± standard deviation, six bones, control 23.6 ± 3.9, * p < 0.05 vs control) [%] | 45Ca (%) released (rat fetal long bone [2]; control II group: PTH + calcitonin 3 mU/ml, no compound, 3 days, PTH alone (control I) 39.7 ± 1.5) [%] | potentiation of the inhibitory action of calcitonin on PTH-stimulated bone resorption (in words) (rat fetal long bone [2]) |
| --- | --- | --- | --- | --- | --- | --- |
| CC(Oc1ccc2c(=O)c(-c3ccccc3)coc2c1)C(=O)O (stereo not drawn) [compound A, 7-(1-hydroxycarbonylethyl)oxy-3-phenyl-4H-1-benzopyran-4-one] | could not be calculated | could not be calculated | suppressed bone resorption | 18.5 ± 2.2 |  |  |
| calcitonin: calcitonin, bone resorption inhibitor used with PTH in control II group (CGNLSTCMLGTYTQDFNKFHTFPQTAIGVGAP; ends and bridges not checked; cysteine pairing not given here; UniProt P01258 85-116, looked up) [reference compound] |  |  |  |  | 35.9 ± 4.9 |  |
| CCOC(=O)C(C)Oc1ccc2c(=O)c(-c3ccccc3)coc2c1 (stereo not drawn) [compound C, 7-(1-ethoxycarbonylethyl)-oxy-3-phenyl-4H-1-benzopyran-4-one] |  |  |  |  |  | potentiated the inhibitory action of calcitonin on PTH-stimulated bone resorption |
| CC(Oc1ccc2c(=O)c(-c3ccc(O)cc3)coc2c1)C(=O)O (stereo not drawn) [compound B, 7-(1-hydroxycarbonylethyl)-oxy-3-(4-hydroxyphenyl)-4H-1-benzopyran-4-one] | could not be calculated | could not be calculated |  |  |  | potentiated the inhibitory action of calcitonin on PTH-stimulated bone resorption |
